Test results published in patent US7893278B2, “CIS-imidazolines” (Hoffman-La Roche Inc., priority 2004, dated 2011).
pIC50: −log10 of the molar value.

Biological target: interaction between p53 and MDM2 proteins (recombinant GST-tagged MDM2) (Homo sapiens, UniProt Q00987)
Experiment: ELISA of inhibition of the interaction between p53 and MDM2 (GST-tagged MDM2 binding to immobilized p53-like peptide)
Conditions: recombinant GST-tagged MDM2 / biotinylated p53-like peptide

interaction between p53 and MDM2 proteins (recombinant GST-tagged MDM2), sequence (Q00987 whole entry): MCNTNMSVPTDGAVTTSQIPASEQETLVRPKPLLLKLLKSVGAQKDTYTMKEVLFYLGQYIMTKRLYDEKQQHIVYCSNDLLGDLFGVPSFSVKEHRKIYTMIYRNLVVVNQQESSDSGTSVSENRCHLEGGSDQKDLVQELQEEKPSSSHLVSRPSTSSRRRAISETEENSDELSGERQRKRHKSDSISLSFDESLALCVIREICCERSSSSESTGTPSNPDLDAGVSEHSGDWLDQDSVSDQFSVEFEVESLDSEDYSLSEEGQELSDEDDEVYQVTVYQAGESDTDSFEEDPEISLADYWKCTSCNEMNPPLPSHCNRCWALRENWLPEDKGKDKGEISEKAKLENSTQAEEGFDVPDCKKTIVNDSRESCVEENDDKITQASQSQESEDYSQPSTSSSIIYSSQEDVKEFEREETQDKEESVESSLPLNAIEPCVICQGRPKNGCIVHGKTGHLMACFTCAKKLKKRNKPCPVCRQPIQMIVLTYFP

COc1ccc(C2=N[C@@H](c3ccc(Cl)cc3)[C@@H](c3ccc(Cl)cc3)N2C(=O)N2CCC(N3CCCC3)CC2)c(OC(C)C)c1 [Example 5, [(4S,5R)-4,5-Bis-(4-chloro-phenyl)-2-(2-isopropoxy-4-methoxy-phenyl)-4,5-dihydro-imidazol-1-yl]-(4-pyrrolidin-1-yl-piperidin-1-yl)-methanone]
pIC50: 7.15
